Like-named read-outs stand apart in the source and are kept apart here.
Tests used:
[1] = test system: urease; assay type: biochemical
[2] = test system: urease; assay: Longevity of urea protection by urease inhibitor; settings: ~0.1% NBPT; according to the literature and own studies
From the text: Urea can only benefit plants as an aqueous solution, so the protecting urease inhibitor NBPT must be also dissolved and spread along with urea.

[3] = ammonia after 1 week, NBPT (PG, 26.70%, 8 mg) alone or oxidant added per stated mg of NBPT
[4] = ammonia after 3 days, NBPT (PG, 26.70%, 8 mg) alone or oxidant added per stated mg of NBPT

## OO [Hydrogen Peroxide, 10%, Hydrogen Peroxide]
[1]
  Urease Inhibitor Test with additional oxidant components (ammonia ppm), 1 week: 400 ppm
  Urease Inhibitor Test with additional oxidant components (ammonia ppm), 3 days: 0.1 ppm

## CCCCNP(N)(N)=S [NBPT, N-(n-Butyl)thiophosphoric triamide, reference compound]
[1]; [3]
  Urease Inhibitor Test with additional oxidant components (ammonia ppm), 1 week: 800 ppm
[1]; ammonia after 1 week, treatment + about 5.0 g urea in 10 mL water on 60 g soil, sealed
  Urease Inhibitor Test (ammonia ppm), 1 week: 35 ppm
[1]; ammonia after 2 weeks, treatment + about 5.0 g urea in 10 mL water on 60 g soil, sealed
  Urease Inhibitor Test (ammonia ppm), 2 weeks: 600 ppm
[1]; [4]
  Urease Inhibitor Test with additional oxidant components (ammonia ppm), 3 days: 5 ppm
[1]; ammonia after 3 days, treatment + about 5.0 g urea in 10 mL water on 60 g soil, sealed
  Urease Inhibitor Test (ammonia ppm), 3 days: 13 ppm
[2]
  longevity of urea protection: around one week

## CCCCNP(N)(N)=O [NBPTO, oxidized N-(n-Butyl)thiophosphoric triamide]
[1]
  Urease Inhibitor Test (ammonia ppm), 1 week: 0.6 ppm
  Urease Inhibitor Test (ammonia ppm), 2 weeks: 1 ppm
  Urease Inhibitor Test (ammonia ppm), 3 weeks: 5 ppm
  Urease Inhibitor Test (ammonia ppm), 3 days: 0.05 ppm
  urease inhibition increase in comparison with NBPT: up to eight-fold urease inhibition increase

## O=S(=O)([O-])OOS(=O)(=O)[O-].[K+].[K+] [Potassium Persulfate]
[1]; [3]
  Urease Inhibitor Test with additional oxidant components (ammonia ppm), 1 week: 140 ppm
[1]; [4]
  Urease Inhibitor Test with additional oxidant components (ammonia ppm), 3 days: 1 ppm

— US20240368050A1, “ENHANCED PERFORMANCE UREASE INHIBITOR, COMPOSITIONS AND METHODS THEREOF” (priority 2023, published 2024)
